Tested on: not listed separately
Test: Chemical stability of the compound at 1 to 100 uM after 1 hr by ESI-MS analysis
Type: physicochemical
Details: not given

| Stability | Compound |
| --- | --- |
| Stable | COc1cc(C(=O)Nc2ccc(-c3ccccc3)cc2[N+](=O)[O-])cc(OC)c1OC |
| Stable | O=C(Nc1ccc(-c2ccccc2)cc1[N+](=O)[O-])c1cc(O)c(O)c(O)c1 |
| Stable | COc1cc(C(=O)Nc2ccc(-c3ccccc3)cc2[N+](=O)[O-])cc(O)c1O |

Target: ATP-dependent translocase ABCB1 (Homo sapiens, UniProt P08183)
Test: Inhibition of human MDR1 expressed in MDCK cells assessed as calcein AM accumulation after 30 mins by fluorescence assay
Type: cell-based
Details: read-out: IC50

Sequence of ATP-dependent translocase ABCB1 (P08183 whole entry): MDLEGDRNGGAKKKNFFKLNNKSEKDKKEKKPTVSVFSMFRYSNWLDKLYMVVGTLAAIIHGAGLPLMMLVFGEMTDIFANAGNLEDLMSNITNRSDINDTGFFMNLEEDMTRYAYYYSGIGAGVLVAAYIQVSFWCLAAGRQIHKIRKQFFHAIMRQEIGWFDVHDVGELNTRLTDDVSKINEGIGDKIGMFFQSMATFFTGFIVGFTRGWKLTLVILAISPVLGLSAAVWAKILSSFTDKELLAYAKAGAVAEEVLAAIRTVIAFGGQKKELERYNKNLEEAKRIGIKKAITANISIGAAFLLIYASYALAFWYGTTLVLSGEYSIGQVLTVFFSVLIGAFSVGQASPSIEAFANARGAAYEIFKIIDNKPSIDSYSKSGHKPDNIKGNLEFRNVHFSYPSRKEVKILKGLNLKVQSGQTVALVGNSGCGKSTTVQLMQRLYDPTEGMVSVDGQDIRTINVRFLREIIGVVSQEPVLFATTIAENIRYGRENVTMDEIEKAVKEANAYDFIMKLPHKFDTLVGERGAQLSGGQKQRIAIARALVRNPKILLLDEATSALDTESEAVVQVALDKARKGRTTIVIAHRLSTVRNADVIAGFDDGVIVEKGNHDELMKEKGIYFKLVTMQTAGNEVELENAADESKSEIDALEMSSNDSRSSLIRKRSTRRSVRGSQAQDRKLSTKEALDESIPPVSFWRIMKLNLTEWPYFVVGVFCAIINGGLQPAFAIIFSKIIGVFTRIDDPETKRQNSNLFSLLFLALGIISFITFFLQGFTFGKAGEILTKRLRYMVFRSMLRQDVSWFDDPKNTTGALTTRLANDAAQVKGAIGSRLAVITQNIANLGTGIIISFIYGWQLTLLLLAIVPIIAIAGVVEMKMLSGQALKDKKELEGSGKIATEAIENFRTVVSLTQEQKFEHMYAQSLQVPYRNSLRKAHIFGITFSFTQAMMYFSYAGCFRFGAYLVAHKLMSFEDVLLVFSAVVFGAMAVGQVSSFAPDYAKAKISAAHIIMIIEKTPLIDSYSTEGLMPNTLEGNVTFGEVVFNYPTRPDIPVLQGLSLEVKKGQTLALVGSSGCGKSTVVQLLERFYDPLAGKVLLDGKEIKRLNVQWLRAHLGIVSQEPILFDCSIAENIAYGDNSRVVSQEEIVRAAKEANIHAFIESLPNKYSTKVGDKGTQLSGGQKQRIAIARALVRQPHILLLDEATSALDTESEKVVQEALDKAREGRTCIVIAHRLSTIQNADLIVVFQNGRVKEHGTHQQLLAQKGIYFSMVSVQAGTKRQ

| IC50 | Compound |
| --- | --- |
| 20 µM | COc1cc(C(=O)Nc2ccc(Br)cc2)cc(OC)c1OC |
| > 100 µM | COc1cc(C(=O)Nc2ccc(-c3ccccc3)cc2)cc(OC)c1OC |
| 7.2 µM | COc1cc(C(=O)Nc2ccc(-c3ccccc3)cc2N)cc(OC)c1OC |
| 1.4 µM | COc1cc(C(=O)Nc2ccc(-c3ccccc3)cc2F)cc(OC)c1OC |
| > 100 µM | COc1cc(C(=O)Nc2ccc(-c3ccccc3)cc2[N+](=O)[O-])cc(OC)c1OC |
| 1.9 µM | COc1cc(C(=O)Nc2ccc(-c3ccccc3)cc2NC(C)=O)cc(OC)c1OC |
| > 100 µM | COc1cc(C(=O)Nc2ccc(Br)cc2[N+](=O)[O-])cc(OC)c1OC |
| > 100 µM | COc1ccc(NC(=O)c2cc(OC)c(OC)c(OC)c2)c([N+](=O)[O-])c1 |
| 0.57 µM | COc1cc(C(=O)Nc2cc(-c3ccccc3)ccc2[N+](=O)[O-])cc(OC)c1OC |
| 17.3 µM | COc1cc(C(=O)Nc2ccc(-c3cccs3)cc2[N+](=O)[O-])cc(OC)c1OC |
| 6.8 µM | COc1cc(C(=O)Nc2ccc(-c3cccnc3)cc2[N+](=O)[O-])cc(OC)c1OC |
| 0.2 µM | COc1cc(C(=O)Nc2ccc(-c3ccc4c(c3)OCO4)cc2[N+](=O)[O-])cc(OC)c1OC |
| 0.6 µM | COc1cc(C(=O)Nc2ccc(-c3cccc(C(C)=O)c3)cc2[N+](=O)[O-])cc(OC)c1OC |
| 24.3 µM | COc1cc(C(=O)Nc2ccc(-c3cc(OC)c(OC)c(OC)c3)cc2[N+](=O)[O-])cc(OC)c1OC |
| 0.4 µM | COc1cc(C(=O)Nc2ccc(-c3cccc([N+](=O)[O-])c3)cc2[N+](=O)[O-])cc(OC)c1OC |
| 34 µM | COc1cc(C(=O)Nc2ccc(-c3ccc[n+](C)c3)cc2[N+](=O)[O-])cc(OC)c1OC |
| 1.3 µM | COc1ccc(C(=O)Nc2ccc(-c3ccccc3)cc2[N+](=O)[O-])cc1OC |
| 6.6 µM | COc1cc(OC)cc(C(=O)Nc2ccc(-c3ccccc3)cc2[N+](=O)[O-])c1 |
| 1.5 µM | COc1cc(CNc2ccc(-c3ccccc3)cc2[N+](=O)[O-])cc(OC)c1OC |
| 2 µM | COc1cc(NC(=O)c2ccc(-c3ccccc3)cc2[N+](=O)[O-])cc(OC)c1OC |
| > 100 µM | O=C(Nc1ccc(Br)cc1[N+](=O)[O-])c1cc(O)c(O)c(O)c1 |

| IC50 | Compound |
| --- | --- |
| > 100 µM | O=C(Nc1ccc(-c2ccccc2)cc1[N+](=O)[O-])c1cc(O)c(O)c(O)c1 |
| 72 µM | O=C(Nc1ccc(-c2ccccc2)cc1[N+](=O)[O-])c1cc(O)cc(O)c1 |
| 38.4 µM | COc1cc(C(=O)Nc2ccc(Br)cc2[N+](=O)[O-])cc(O)c1O |
| 65 µM | COc1ccc(NC(=O)c2cc(O)c(O)c(OC)c2)c([N+](=O)[O-])c1 |
| 40.2 µM | COc1cc(C(=O)Nc2cc(-c3ccccc3)ccc2[N+](=O)[O-])cc(O)c1O |
| 67 µM | COc1cc(C(=O)Nc2ccc(-c3ccccc3)cc2[N+](=O)[O-])cc(O)c1O |
| 16.8 µM | COc1cc(C(=O)Nc2ccc(-c3cc(F)cc(F)c3)cc2[N+](=O)[O-])cc(O)c1O |
| > 100 µM | COc1cc(C(=O)Nc2ccc(-c3ccc(O)c(O)c3)cc2[N+](=O)[O-])cc(O)c1O |
| 9.1 µM | COc1cc(C(=O)Nc2ccc(-c3cccc(C(C)=O)c3)cc2[N+](=O)[O-])cc(O)c1O |
| 3.1 µM | COc1cc(C(=O)Nc2ccc(-c3cc(O)c(O)c(OC)c3)cc2[N+](=O)[O-])cc(O)c1O |
| 32.5 µM | COc1cc(C(=O)Nc2ccc(-c3cccc([N+](=O)[O-])c3)cc2)cc(O)c1O |
| > 100 µM | COc1cc(C(=O)Nc2ccc(-c3ccccc3)cc2)cc(O)c1O |
| > 100 µM | COc1cc(C(=O)Nc2ccc(-c3ccccc3)cc2N)cc(O)c1O |
| 14.1 µM | COc1cc(C(=O)Nc2ccc(-c3ccccc3)cc2F)cc(O)c1O |
| > 100 µM | COc1cc(C(=O)Nc2ccc(-c3ccccc3)cc2NC(C)=O)cc(O)c1O |
| 3.5 µM | COc1ccc(C(=O)Nc2ccc(-c3ccccc3)cc2[N+](=O)[O-])cc1O |
| 72 µM | COc1cc(CNc2ccc(-c3ccccc3)cc2[N+](=O)[O-])cc(O)c1O |
| > 100 µM | COc1cc(NC(=O)c2ccc(-c3ccccc3)cc2[N+](=O)[O-])cc(O)c1O |
| > 100 µM | COC1=CC(C(=O)Nc2ccc(-c3ccccc3)cc2[N+](=O)[O-])=CC(=O)C1=O |
| 31.7 µM | COc1ccc(CCN(C)CCCC(C#N)(c2ccc(O)c(O)c2)C(C)C)cc1OC (racemic) |

Same assay, conditions: read-out: pIC50 (converted)

| IC50 | Compound |
| --- | --- |
| 0.57 µM | COc1cc(C(=O)Nc2cc(-c3ccccc3)ccc2[N+](=O)[O-])cc(OC)c1OC |
| 0.2 µM | COc1cc(C(=O)Nc2ccc(-c3ccc4c(c3)OCO4)cc2[N+](=O)[O-])cc(OC)c1OC |
| 0.6 µM | COc1cc(C(=O)Nc2ccc(-c3cccc(C(C)=O)c3)cc2[N+](=O)[O-])cc(OC)c1OC |
| 24.3 µM | COc1cc(C(=O)Nc2ccc(-c3cc(OC)c(OC)c(OC)c3)cc2[N+](=O)[O-])cc(OC)c1OC |
| > 1 µM | COc1cc(C(=O)Nc2ccc(-c3cccc([N+](=O)[O-])c3)cc2[N+](=O)[O-])cc(OC)c1OC |
